Experimental data taken from US10870875B2, “Metalloprotein compositions” (Commonwealth Scientific and Industrial Research Organisation, priority 2014, dated 2020).

Experiments:
[1] = molecular target: T1, recombinant honeybee (Apis mellifera) silk protein AmelF3, unmodified, SEQ ID NO: 39 (Apis mellifera, UniProt A0ACM8QI31); assay: Binding of macrocycles/chelates to AmelF3 sponges or films (colour retained after washing, UV/Vis); conditions: qualitative; for Binding properties: sponge, macrocycle in excess, retention of colour after washing; for binding to silk protein (in words): sponge or film
T1 construct: sponges and films
Method: Full length, recombinant honeybee silk proteins (AmelF3) without affinity purification tags, were produced by fermentation in Escherichia coli as described in Weisman et al. (2010). Full length, recombinant Weaver Ant/Green Ant (Oecophylla smaragdina) silk proteins (GA1, GA2, GA3, GA4) without affinity purification tags, were produced by fermentation in Escherichia coli following the same procedures as outlined in Weisman et al. (2010).
(§1) AmelF3 sponges were prepared as described in example 1. […] The colour change observed with honeybee silk indicates a change in the coordination of the iron metal centre within the haem group, producing a material with a similar coordination to red haemoglobin. The colour was not removed by extensive washing with 70% methanol, 0.1M HCl or 0.1M NaCl.
An embodiment of the composition of the present invention was formed by co-drying a solution of AmelF3 and haem b. Briefly, 2 mg haem b and 20 mg AmelF3 silk sponge was dissolved in 1 mL of HFIP overnight at room temperature. The solution was aliquoted into either a cuvette or 24-well plate and dried at room temperature. The dried film was soaked overnight in 70% methanol to make the film insoluble in water.
Alternatively, haem b was ‘leached’ into a pre-formed film. The AmelF3 material was formed as described in example 1. The silk material was soaked in a solution of haem b (0.5 mg/mL; haem b in excess) in 70% methanol solution for between 1 and 48 hours followed by washing with 70% methanol to remove any unbound haem b and dried at room temperature.
AmelF3 films with different ratios of haem b to AmelF3 were prepared by co-drying haem and AmelF3 HFIP solutions. At low haem loadings (haem:protein molar ratios of 1:1 and 1:2), a sharp Soret peak at 404 nm was observed, indicative of all the haem being coordinated (FIG. 3). As the concentration of haem b relative to the protein was increased, the Soret peak broadened and shifted to lower wavelengths indicating an increase in the amount of uncoordinated haem (FIG. 3).
(§2) The ability of sponges generated from recombinant AmelF3 to bind a range of macrocyles was tested by adding a solution of the macrocmacrocycle containing an excess of the macrocycle to be tested to the AmelF3 sponge and observing the colour of the sponge and whether the sponge retained colour after washing. The strength of macrocycle binding was assessed qualitatively by assessing the intensity of the colour retained by the sponge after washing. Strong binding to the sponge refers to the finding that the macrocycle cannot be washed out with aqueous methanol, organic solvents, 0.1 M HCl or 0.1 M NaOH.
(§3) Films generated from recombinant honeybee silk protein AmelF3 containing dicyanocobyrinic acid heptamethyl ester were prepared as described in example 3. UV/Vis spectrum were recorded for a film generated from recombinant AmelF3 containing dicyanocobyrinic acid heptamethyl ester and a solution of dicyanocobyrinic acid heptamethyl ester without AmelF3 (FIG. 8).

[2] = molecular target: T2, Apis mellifera AmelF3 (SEQ ID NO: 39) variant Tyr76Ala (Apis mellifera, UniProt A0ACM8QI31, Y95A); assay: Binding of chelates to AmelF3 Tyr76Ala sponges or films; conditions: sponge washed with aqueous methanol, qualitative
T2 construct: sponge or film
T2 sequence (A0ACM8QI31 entry or part of it Y95A): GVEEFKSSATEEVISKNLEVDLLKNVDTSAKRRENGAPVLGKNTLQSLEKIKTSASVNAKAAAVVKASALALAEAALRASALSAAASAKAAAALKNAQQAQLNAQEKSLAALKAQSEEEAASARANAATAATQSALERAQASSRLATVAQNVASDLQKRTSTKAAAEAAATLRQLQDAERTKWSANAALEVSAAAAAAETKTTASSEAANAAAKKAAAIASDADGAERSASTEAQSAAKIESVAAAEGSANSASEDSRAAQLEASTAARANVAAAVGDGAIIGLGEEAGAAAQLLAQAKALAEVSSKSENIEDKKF
Method: Site directed mutagenesis of honeybee silk proteins was carried using methods known to the person skilled in the art. For example, to generate AmelF3 Tyr76Ala, the forward primer 5′-[…]-3′ (SEQ ID NO: 80) with the corresponding reverse primer was employed and site directed mutagenesis was carried out using Pfx 50 DNA polymerase from Invitrogen following the Pfx50 manufactures instructions. All AmelF3 mutants were expressed and purified using a similar procedure as the unmodified AmelF3 silk protein. To generate AmelF3 Tyr76His, the forward primer 5′-[…]-3′ (SEQ ID NO: 81) with the corresponding reverse primer was employed. To generate AmelF3 Ala97His, the forward primer 5′-[…]-3′ (SEQ ID NO: 82) was used.
To test whether Tyr76 was indeed the coordinating ligand, the present inventors replaced Tyr76 with an alanine using site directed mutagenesis of the AmelF3 silk gene.

[3] = tested on: materials generated from recombinant honeybee silk proteins (AmelF3 sponge); assay: Binding of macrocycles to recombinant AmelF3 honeybee silk sponges, judged by colour retained after washing; design: species or system Apis mellifera; conditions: excess macrocycle in solution, intensity of colour retained after washing
Method: as §1, §2

[4] = tested on: AmelF3 in film; assay: Binding of dicyanocobyrinic acid heptamethyl ester to AmelF3 film (UV/Vis); design: species or system Apis mellifera; conditions: peak shift from 370 to 360
Method: as §3

[5] = molecular target: T3, recombinant honeybee (Apis mellifera) silk protein AmelF3, SEQ ID NO: 39, containing bound haem b (film) (Apis mellifera, UniProt A0ACM8QI31); assay: NO binding to reduced AmelF3-haem b film (UV/Vis); conditions: NO added as diethylamine NONOate to dithionite-reduced film, 50 mM phosphate pH 7; decrease in absorbance at 420 nm, sigmoidal fit modified from Hill equation; read-out: dissociation constant
T3 sequence (A0ACM8QI31 20-335): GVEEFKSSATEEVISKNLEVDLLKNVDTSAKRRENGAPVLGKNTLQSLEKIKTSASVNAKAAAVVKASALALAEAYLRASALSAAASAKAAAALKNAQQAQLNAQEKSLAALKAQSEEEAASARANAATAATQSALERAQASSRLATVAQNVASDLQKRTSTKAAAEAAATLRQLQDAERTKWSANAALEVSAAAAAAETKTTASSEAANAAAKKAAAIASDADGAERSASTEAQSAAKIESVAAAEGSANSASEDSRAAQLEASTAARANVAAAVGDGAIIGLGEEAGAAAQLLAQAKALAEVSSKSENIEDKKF
From the text: A. UV/Vis spectra obtained when silk protein films generated from recombinant honeybee silk protein AmelF3 were bound to increasing NO concentrations. B. Ratio change of absorbance change at 420 nm as NO concentrations are increased. Either the decrease in absorbance at 420 nm or increase in absorbance at 390 nm can be used. The decrease in absorbance at 420 nm can be converted into the fraction of nitric oxide binding site occupied by NO and plotted against NO concentration, and fitted to a sigmoidal curve modified from the Hill equation with a dissociation constant of 6.7 μM and a limit of detection of ˜1 μM.
AmelF3-haem b film was used as the porphyrin-silk film. Freshly prepared sodium dithionite (100 mM) in 50 mM phosphate buffer (pH 7) were used as the reducing agent. 10-100 μL was added to a 50 mM phosphate buffer (pH 7) covering the porphyrin-silk film. Sodium persulfate was used at the oxidising agent a similar manner to sodium dithionite. […] Changes in the UV/Vis spectrum were monitored to determine redox states and measure NO binding (FIGS. 10A and 10B). […]
Exposure to increasing NO concentration caused the Soret peak to shift from 421 nm to 395 nm. From 0-7 μM, there was a linear relationship between the decrease in absorbance at 421 nm and the concentration of NO, with a limit of detection for NO of 1 μM.

| Compound | Binding properties [1] | binding to silk protein (in words) [1] | further results |
| --- | --- | --- | --- |
| CCC1=C(C)c2cc3[nH]c(cc4[nH]c(cc5nc(cc1n2)C(C)=C5CC)c(C)c4CC)c(C)c3CC [drawing 2] | Does not bind | – | – |
| CCC1=C(C)c2cc3[nH]c(cc4[nH]c(cc5nc(cc1n2)C(C)=C5CC)c(C)c4CC)c(C)c3CC [etioporphryin I] | – | no binding is obtained | – |
| COC(=O)CC[C@@H]1C2=NC(=C\C3=NC(=C(/C)C4=N[C@@](C)([C@@H]5[N-]/C(=C\2C)[C@](C)(CCC(=O)OC)[C@H]5CC(=O)OC)[C@@](C)(CC(=O)OC)[C@@H]4CCC(=O)OC)/[C@@](C)(CC(=O)OC)[C@@H]3CCC(=O)OC)/C1(C)C.[C-]#N.[C-]#N.[Co+3] [Dicyanocobyrinic acid heptamethyl ester, dicyanocobyrinic acid heptamethyl ester] | – | strongly blind to AmelF3 | binding to silk protein (in words) [2]: did not bind |
| C1=CC2C3=NC(=N\C4N/C(=N\C5=NC(=N\C6N/C(=N\3)c3ccccc36)/C3C=CC=CC53)c3ccccc34)/C2C=C1 (stereo not drawn) [drawing 5, Phthalocyanine] | – | no binding is obtained | – |
| O=S(=O)(O)c1ccc2c(c1)-c1nc-2nc2[nH]c(nc3nc(nc4[nH]c(n1)c1ccc(S(=O)(=O)O)cc41)-c1ccc(S(=O)(=O)O)cc1-3)c1ccc(S(=O)(=O)O)cc21 [phthalocyanine tetrasulfonic acid] | Strongly binds | – | – |
| O=S(=O)(O)c1ccc2c(c1)-c1nc-2nc2[nH]c(nc3nc(nc4[nH]c(n1)c1ccc(S(=O)(=O)O)cc41)-c1ccc(S(=O)(=O)O)cc1-3)c1ccc(S(=O)(=O)O)cc21.[Zn+2] [Zn phthalocyanine tetrasulfonic acid, zinc phthalocyanine tetrasulfonic acid] | – | can bind | – |
| C1=CC2C3=NC(=N\C4N/C(=N\C5=NC(=N\C6N/C(=N\3)c3ccccc36)/C3C=CC=CC53)c3ccccc34)/C2C=C1 (stereo not drawn) [drawing 5] | – | – | Binding properties [3]: Does not bind |
| COC(=O)CC[C@@H]1C2=NC(=C\C3=NC(=C(/C)C4=N[C@@](C)([C@@H]5[N-]/C(=C\2C)[C@](C)(CCC(=O)OC)[C@H]5CC(=O)OC)[C@@](C)(CC(=O)OC)[C@@H]4CCC(=O)OC)/[C@@](C)(CC(=O)OC)[C@@H]3CCC(=O)OC)/C1(C)C.[C-]#N.[C-]#N.[Co+3] [Dicyanocobyrinic acid heptamethyl ester] | – | – | binding to AmelF3 in film [4]: strongly blind |
| COC(=O)CCC1=C(C)c2cc3[nH]c(cc4nc(cc5[nH]c(cc1n2)c(CCC(=O)OC)c5C)C(S(=O)(=O)O)=C4C)c(S(=O)(=O)O)c3C [drawing 4] | Weak binding | – | Binding properties [3]: Weak binding |
| C=CC1=C(C)c2cc3[nH]c(cc4nc(cc5[nH]c(cc1n2)c(C)c5CCC(=O)O)C(CCC(=O)O)=C4C)c(C)c3C=C [drawing 1] | Strongly binds to silk | – | Binding properties [3]: Strongly binds to silk |
| C=Cc1c(C)c2cc3[nH]c(cc4nc(cc5nc(cc1[nH]2)C(C)=C5CCC(=O)OC)C(CCC(=O)OC)=C4C)c(C)c3C=C | Does not bind | – | – |
| [N]=O [NO, nitric oxide] | – | – | Kd [5]: 6.7 µM |
